Laboratory results as given in ChEMBL document CHEMBL1131935, “Novel cytokine release inhibitors. Part IV: analogs of podocarpic acid” (Bioorg Med Chem Lett, 1999).
pIC50: −log10 of the molar value.

Species: Homo sapiens
Test: Inhibition of IL1-beta release stimulated with LPS in human monocytes
Assay type: functional

SMILES	pIC50
CCOC(=O)CCCNC(=O)[C@@]1(C)CCC[C@]2(C)c3cc(C(=O)OC)c(C(=O)OC)cc3C=CC12 (stereo partly drawn)	6.82
COC(=O)c1cc2c(cc1NS(C)(=O)=O)C=C[C@H]1[C@@](C)(C(=O)OC)CCC[C@]21C	7.00
COC(=O)[C@@]1(C)CCC[C@]2(C)c3cc(O)c(OC)cc3C=C[C@@H]12	7.00
COC(=O)[C@@]1(C)CCC[C@]2(C)c3cc(OC)c(O)cc3C=C[C@@H]12	7.00
COC(=O)c1cc2c(cc1C(=O)OC)[C@@]1(C)CCC[C@](C)(C(=O)N3CCOCC3)C1C=C2 (stereo partly drawn)	6.96
COC(=O)c1cc2c(cc1Br)C=C[C@H]1[C@@](C)(C(=O)OC)CCC[C@]21C	6.10
COC(=O)c1cc2c(cc1C(=O)OC)[C@@]1(C)CCC[C@](C)(C(=O)O)C1C=C2 (stereo partly drawn)	6.96
COC(=O)[C@@]1(C)CCC[C@]2(C)c3cc(C(=O)OC(C)(C)C)c(C(=O)OC(C)(C)C)cc3C=CC12 (stereo partly drawn)	6.27
COC(=O)[C@@]1(C)CCC[C@]2(C)c3cc(O)c(O)cc3C=CC12 (stereo partly drawn)	7.00
COc1cc2c(c(C)c1O)C=C[C@H]1[C@@](C)(C(=O)O)CCC[C@]21C	7.00
COC(=O)[C@@]1(C)CCC[C@]2(C)c3cc(O)c(N)cc3C=C[C@@H]12	6.82
COC(=O)[C@@]1(C)CCC[C@]2(C)c3cc(C(=O)OC(C)C)c(C(=O)OC(C)C)cc3C=CC12 (stereo partly drawn)	6.96

Continued, values first:

pIC50	SMILES
7.00	COC(=O)c1cc2c(cc1C(=O)OC)[C@@]1(C)CCC[C@](C)(C(=O)OC)C1C=C2 (stereo partly drawn)
6.40	COC(=O)Cc1cc2c(cc1C(=O)OC)[C@@]1(C)CCC[C@](C)(C(=O)OC)[C@@H]1C=C2
6.96	COC(=O)c1cc2c(c(C(C)=O)c1C(=O)OC)CCC1[C@@](C)(C(=O)OC)CCC[C@]21C (stereo partly drawn)
6.40	COC(=O)c1cc2c(c(Br)c1C(=O)OC)CCC1[C@@](C)(C(=O)OC)CCC[C@]21C (stereo partly drawn)
6.70	COC(=O)c1cc2c(c(C)c1C(=O)OC)C(C)=CC1[C@@](C)(C(=O)OC)CCC[C@]21C (stereo partly drawn)
6.96	CCCc1c2c(cc(C(=O)OC)c1C(=O)OC)[C@@]1(C)CCC[C@](C)(C(=O)OC)C1C=C2 (stereo partly drawn)
6.59	COC(=O)c1cc2c(cc1OC)[C@@]1(C)CCC[C@](C)(C(=O)OC)[C@@H]1C(=O)C2
6.80	COC(=O)c1cc2c(cc1OC)[C@@]1(C)CCC[C@](C)(C(=O)OC)[C@@H]1C=C2
6.00	COC(=O)c1cc2c(cc1C(=O)OC)[C@@]1(C)CCC[C@](C)(C(=O)OC)C1CC2=O (stereo partly drawn)
6.80	COC(=O)C[C@@]1(C)CCC[C@]2(C)c3cc(C(=O)OC)c(C(=O)OC)cc3C=CC12 (stereo partly drawn)
6.52	CCCc1c2c(cc(C(=O)OC)c1C(=O)OC)[C@@]1(C)CCC[C@](C)(C(=O)OC)C1CC2 (stereo partly drawn)
6.10	CCCc1c(C(=O)OC)c(C(=O)OC)cc2c1C(=O)CC1[C@@](C)(C(=O)OC)CCC[C@]21C (stereo partly drawn)
7.00	COC(=O)c1cc2c(cc1OC)C=C[C@H]1[C@@](C)(C(=O)OC)CCC[C@]21C
5.85	COC(=O)[C@@]1(C)CCC[C@]2(C)c3cc(OC)c(O)cc3CC[C@@H]12
6.70	C=CCc1c2c(cc(C(=O)OC)c1C(=O)OC)[C@@]1(C)CCC[C@](C)(C(=O)OC)C1CC2 (stereo partly drawn)
6.52	CCCc1c2c(cc(OC)c1C(=O)OC)[C@@]1(C)CCC[C@](C)(C(=O)OC)[C@@H]1C=C2
6.85	COC(=O)c1cc2c(c(C)c1C(=O)OC)C=CC1[C@@](C)(C(=O)OC)CCC[C@]21C (stereo partly drawn)

Species: Homo sapiens
Test: Compound tested for the inhibition of IL1-beta release stimulated with LPS in human monocytes was determined at a concentration of 1 uM
Assay type: functional

SMILES	inhibition at 1 µM
COC(=O)[C@@]1(C)CCC[C@]2(C)c3cc(O)c(C(C)C)cc3C=C[C@@H]12	38%
COC(=O)[C@@]1(C)CCC[C@]2(C)c3cc(O)ccc3CCC12 (stereo partly drawn)	15%
COC(=O)[C@@]1(C)CCC[C@]2(C)c3cc(O)c(O)cc3CCC12 (stereo partly drawn)	42%
COC(=O)[C@@]1(C)CCC[C@]2(C)c3cc(O)c([N+](=O)[O-])cc3C=C[C@@H]12	5%
